# Assay results from patent publication US20070099941A1, “N-arylalkyl-thienopyrimidin-4-amines and analogs as activators of caspases and inducers of apoptosis and the use thereof” (Cytovia, Inc., priority 2005, published 2007).
# pEC50: −log10 of the molar value.
# Test system: human breast cancer cell line T-47D
# Test: Caspase cascade activation assay in T-47D cells
# Format: cell-based
# Settings: T47D, 24 h or 48 h incubation, read-out: Caspase Activation Potency EC50 T-47D
# Method: (§1) Human breast cancer cell lines T-47D and human lung cancer cell line H1299 were grown according to media component mixtures designated by American Type Culture Collection+10% FCS (Invitrogen Corporation), in a 5% CO2-95% humidity incubator at 37° C. T-47D and H1299 cells were maintained at a cell density between 50 and 80% confluency at a cell density of 0.1 to 0.6×10^6 cells/mL. Cells were harvested at 600×g and resuspended at 0.65×10^6 cells/mL into appropriate media+10% FCS. An aliquot of 22.5 μL of cells was added to a well of a 384-well microtiter plate containing 2.5 μL of a 10% DMSO in RPMI-1640 media solution containing 0.16 to 100 μM of N-(3,4-methylenedioxybenzyl)-6-phenylthieno[3,2-d]pyrimidin-4-amine or other test compound (0.016 to 10 μM final). An aliquot of 22.5 μL of cells was added to a well of a 384-well microtiter plate containing 2.5 μL of a 10% DMSO in RPMI-1640 media solution without test compound as the control sample. The samples were mixed by agitation and then incubated at 37° C. for 24 h or 48 h in a 5% CO2-95% humidity incubator. After incubation, the samples were removed from the incubator and 25 μL of a solution containing 14 μM of N-(Ac-DEVD)-N′-ethoxycarbonyl-R110 (SEQ ID No.:1) fluorogenic substrate (Cytovia, Inc.; WO99/18856), 20% sucrose (Sigma), 20 mM DTT (Sigma), 200 mM NaCl (Sigma), 40 mM Na PIPES buffer pH 7.2 (Sigma), and 500 μg/mL lysolecithin (Calbiochem) was added. The samples were mixed by agitation and incubated at room temperature. Using a fluorescent plate reader (Model SPECTRAfluor Plus, Tecan), an initial reading (T=0) was made approximately 1-2 min after addition of the substrate solution, employing excitation at 485 nm and emission at 530 nm, to determine the background fluorescence of the control sample. After the 3 h incubation, the samples were read for fluorescence as above (T=3 h).
# (§2) The Relative Florescence Unit values (RFU) were used to calculate the sample readings as follows: RFU(T=3h)−Control RFU(T=0)=Net RFU(T=3h)
# (§3) The activity of caspase cascade activation was determined by the ratio of the net RFU value for N-(3,4-methylenedioxybenzyl)-6-phenylthieno[3,2-d]pyrimidin-4-amine (Example A) or other test compound to that of control samples. The EC50 (nM) was determined by a sigmoidal dose-response calculation (Prism 3.0, GraphPad Software Inc.).
row,SMILES,pEC50
1,"COc1ccc(CNc2ncnc3cc(I)sc23)cc1OC [Example 14, N-(3,4-Dimethoxybenzyl)-6-iodothieno[3,2-d]pyrimidin-4-amine]",5.37
2,"COc1ccc(CNc2ncnc3cc(-c4cccnc4)sc23)cc1OC [Example 15, N-(3,4-Dimethoxybenzyl)-6-(pyridin-3-yl)thieno[3,2-d]pyrimidin-4-amine]",< 5.00
3,"COc1ccc(CNc2ncnc3cc(I)sc23)c(OC)c1 [Example 16, N-(2,4-Dimethoxybenzyl)-6-iodothieno[3,2-d]pyrimidin-4-amine]",5.89
4,"COc1cc(OC)c(CNc2ncnc3cc(I)sc23)c(OC)c1 [Example 17, N-(2,4,6-Trimethoxybenzyl)-6-iodothieno[3,2-d]pyrimidin-4-amine]",< 5.00
5,"COc1ccc(OC)c(CNc2ncnc3cc(I)sc23)c1 [Example 18, N-(2,5-Dimethoxybenzyl)-6-iodothieno[3,2-d]pyrimidin-4-amine]",5.64
6,"COc1cc(OC)c(CNc2ncnc3cc(-c4cccnc4)sc23)c(OC)c1 [Example 19, N-(2,4,6-Trimethoxybenzyl)-6-(pyridin-3-yl)thieno[3,2-d]pyrimidin-4-amine]",5.29
7,"COc1ccc(OC)c(CNc2ncnc3cc(-c4cccnc4)sc23)c1 [Example 20, N-(2,5-Dimethoxybenzyl)-6-(pyridin-3-yl)thieno[3,2-d]pyrimidin-4-amine]",< 5.00
8,"Cc1nc(NCc2ccc3c(c2)OCO3)c2sc(Br)cc2n1 [Example 21, N-(3,4-Methylenedioxybenzyl)-6-bromo-2-methylthieno[3,2-d]pyrimidin-4-amine]",< 5.00
9,"CN(Cc1ccc2c(c1)OCO2)c1ncnc2cc(-c3cccnc3)sc12 [Example 22, N-(3,4-Methylenedioxybenzyl)-N-methyl-6-(pyridin-3-yl)thieno[3,2-d]pyrimidin-4-amine]",6.83
10,"Cc1nc(NCc2ccc3c(c2)OCO3)c2sc(-c3cccnc3)cc2n1 [Example 23, N-(3,4-Methylenedioxybenzyl)-2-methyl-6-(pyridin-3-yl)thieno[3,2-d]pyrimidin-4-amine]",< 5.00
11,"Oc1ccc(CNc2ncnc3cc(Br)sc23)cc1 [Example 24, N-(4-Hydroxybenzyl)-6-bromothieno[3,2-d]-pyrimidin-4-amine]",< 5.00
12,"Oc1ccc(CNc2ncnc3cc(-c4cccnc4)sc23)cc1 [Example 25, N-(4-Hydroxybenzyl)-6-(pyridin-3-yl)thieno[3,2-d]-pyrimidin-4-amine]",< 5.00

# Test system: human lung cancer cell line H1299
# Test: Caspase cascade activation assay in H1299 cells
# Format: cell-based
# Settings: NCI-H1299, 24 h or 48 h incubation, read-out: Caspase Activation Potency EC50 H1299
# Method: as §1, §2, §3
row,SMILES,pEC50
1,"COc1ccc(CNc2ncnc3cc(I)sc23)cc1OC [Example 14, N-(3,4-Dimethoxybenzyl)-6-iodothieno[3,2-d]pyrimidin-4-amine]",5.29
2,"COc1ccc(CNc2ncnc3cc(-c4cccnc4)sc23)cc1OC [Example 15, N-(3,4-Dimethoxybenzyl)-6-(pyridin-3-yl)thieno[3,2-d]pyrimidin-4-amine]",< 5.00
3,"COc1ccc(CNc2ncnc3cc(I)sc23)c(OC)c1 [Example 16, N-(2,4-Dimethoxybenzyl)-6-iodothieno[3,2-d]pyrimidin-4-amine]",5.54
4,"COc1cc(OC)c(CNc2ncnc3cc(I)sc23)c(OC)c1 [Example 17, N-(2,4,6-Trimethoxybenzyl)-6-iodothieno[3,2-d]pyrimidin-4-amine]",< 5.00
5,"COc1ccc(OC)c(CNc2ncnc3cc(I)sc23)c1 [Example 18, N-(2,5-Dimethoxybenzyl)-6-iodothieno[3,2-d]pyrimidin-4-amine]",5.59
6,"COc1cc(OC)c(CNc2ncnc3cc(-c4cccnc4)sc23)c(OC)c1 [Example 19, N-(2,4,6-Trimethoxybenzyl)-6-(pyridin-3-yl)thieno[3,2-d]pyrimidin-4-amine]",5.54
7,"COc1ccc(OC)c(CNc2ncnc3cc(-c4cccnc4)sc23)c1 [Example 20, N-(2,5-Dimethoxybenzyl)-6-(pyridin-3-yl)thieno[3,2-d]pyrimidin-4-amine]",< 5.00
8,"Cc1nc(NCc2ccc3c(c2)OCO3)c2sc(Br)cc2n1 [Example 21, N-(3,4-Methylenedioxybenzyl)-6-bromo-2-methylthieno[3,2-d]pyrimidin-4-amine]",< 5.00
9,"CN(Cc1ccc2c(c1)OCO2)c1ncnc2cc(-c3cccnc3)sc12 [Example 22, N-(3,4-Methylenedioxybenzyl)-N-methyl-6-(pyridin-3-yl)thieno[3,2-d]pyrimidin-4-amine]",6.80
10,"Cc1nc(NCc2ccc3c(c2)OCO3)c2sc(-c3cccnc3)cc2n1 [Example 23, N-(3,4-Methylenedioxybenzyl)-2-methyl-6-(pyridin-3-yl)thieno[3,2-d]pyrimidin-4-amine]",< 5.00
11,"Oc1ccc(CNc2ncnc3cc(Br)sc23)cc1 [Example 24, N-(4-Hydroxybenzyl)-6-bromothieno[3,2-d]-pyrimidin-4-amine]",< 5.00
12,"Oc1ccc(CNc2ncnc3cc(-c4cccnc4)sc23)cc1 [Example 25, N-(4-Hydroxybenzyl)-6-(pyridin-3-yl)thieno[3,2-d]-pyrimidin-4-amine]",< 5.00
